Test results published in the NIST ThermoML archive (doi:10.1016/j.fluid.2004.09.013).
± gives the expanded uncertainty stated by the source.

Conditions: for mass density: Fluid (supercritical or subcritical phases), Vibrating tube method; for vapor or sublimation pressure: Liquid

## C=C(C)C [2-methylpropene]
388.24 K, 14986 kPa
  mass density: 509.22 ± 1.1 kg/m3
388.24 K, 19997 kPa
  mass density: 523.66 ± 1.2 kg/m3
388.24 K, 25009 kPa
  mass density: 535.55 ± 1.2 kg/m3
388.24 K, 29994 kPa
  mass density: 545.71 ± 1.3 kg/m3
388.24 K, 35003 kPa
  mass density: 554.67 ± 1.3 kg/m3
393.24 K, 3122 kPa
  mass density: 430.77 ± 0.92 kg/m3
393.24 K, 4982 kPa
  mass density: 451.26 ± 0.96 kg/m3
393.24 K, 9992 kPa
  mass density: 482.81 ± 1 kg/m3
393.24 K, 14983 kPa
  mass density: 502.79 ± 1.1 kg/m3
393.24 K, 20002 kPa
  mass density: 518.03 ± 1.2 kg/m3
393.24 K, 25003 kPa
  mass density: 530.42 ± 1.2 kg/m3
393.24 K, 29986 kPa
  mass density: 540.94 ± 1.3 kg/m3
393.24 K, 34999 kPa
  mass density: 550.22 ± 1.3 kg/m3
393.36 K
  vapor or sublimation pressure: 2656.5 ± 9.8 kPa
398.24 K, 3358 kPa
  mass density: 417.5 ± 0.9 kg/m3
398.24 K, 4991 kPa
  mass density: 439.31 ± 0.93 kg/m3
398.24 K, 10000 kPa
  mass density: 474.88 ± 1 kg/m3
398.24 K, 15001 kPa
  mass density: 496.33 ± 1.1 kg/m3
398.24 K, 19996 kPa
  mass density: 512.31 ± 1.2 kg/m3
398.24 K, 24996 kPa
  mass density: 525.25 ± 1.2 kg/m3
398.24 K, 30012 kPa
  mass density: 536.21 ± 1.3 kg/m3
398.24 K, 35008 kPa
  mass density: 545.78 ± 1.3 kg/m3
399.86 K
  vapor or sublimation pressure: 2967.1 ± 11 kPa
403.24 K, 3596 kPa
  mass density: 402.69 ± 0.89 kg/m3
403.24 K, 4988 kPa
  mass density: 426.04 ± 0.91 kg/m3
403.24 K, 14999 kPa
  mass density: 489.7 ± 1.1 kg/m3
403.24 K, 19992 kPa
  mass density: 506.53 ± 1.2 kg/m3
403.24 K, 24997 kPa
  mass density: 520.05 ± 1.2 kg/m3
403.24 K, 30004 kPa
  mass density: 531.43 ± 1.3 kg/m3
403.24 K, 34985 kPa
  mass density: 541.26 ± 1.3 kg/m3
403.25 K, 9993 kPa
  mass density: 466.62 ± 1 kg/m3
408.24 K, 3850 kPa
  mass density: 386.28 ± 0.89 kg/m3
408.24 K, 4991 kPa
  mass density: 411.13 ± 0.92 kg/m3
408.24 K, 14992 kPa
  mass density: 482.94 ± 1.1 kg/m3
408.24 K, 19999 kPa
  mass density: 500.74 ± 1.1 kg/m3
408.24 K, 24999 kPa
  mass density: 514.84 ± 1.2 kg/m3
408.24 K, 30000 kPa
  mass density: 526.63 ± 1.3 kg/m3
408.25 K, 9982 kPa
  mass density: 458.05 ± 0.99 kg/m3
408.25 K, 34995 kPa
  mass density: 536.8 ± 1.3 kg/m3
412.88 K
  vapor or sublimation pressure: 3665.8 ± 13 kPa
413.24 K, 4118 kPa
  mass density: 367.6 ± 0.91 kg/m3
413.24 K, 30005 kPa
  mass density: 521.83 ± 1.3 kg/m3
413.24 K, 35003 kPa
  mass density: 532.34 ± 1.3 kg/m3
413.25 K, 4983 kPa
  mass density: 393.59 ± 0.92 kg/m3
413.25 K, 9996 kPa
  mass density: 449.33 ± 0.98 kg/m3
413.25 K, 14993 kPa
  mass density: 476.09 ± 1.1 kg/m3
413.25 K, 19996 kPa
  mass density: 494.87 ± 1.1 kg/m3
413.25 K, 24999 kPa
  mass density: 509.59 ± 1.2 kg/m3
418.24 K, 4397 kPa
  mass density: 346.27 ± 1.1 kg/m3
418.24 K, 4989 kPa
  mass density: 372.46 ± 0.97 kg/m3
418.24 K, 14988 kPa
  mass density: 469.1 ± 1 kg/m3
418.24 K, 19991 kPa
  mass density: 488.93 ± 1.1 kg/m3
418.24 K, 24993 kPa
  mass density: 504.3 ± 1.2 kg/m3
418.25 K, 9999 kPa
  mass density: 440.27 ± 0.96 kg/m3
418.25 K, 30007 kPa
  mass density: 517.01 ± 1.3 kg/m3
418.25 K, 34986 kPa
  mass density: 527.81 ± 1.3 kg/m3
423.24 K, 5018 kPa
  mass density: 345.72 ± 0.87 kg/m3
423.24 K, 19992 kPa
  mass density: 482.96 ± 1.1 kg/m3
423.24 K, 30010 kPa
  mass density: 512.18 ± 1.3 kg/m3
423.25 K, 9984 kPa
  mass density: 430.4 ± 0.94 kg/m3
423.25 K, 14989 kPa
  mass density: 462 ± 1 kg/m3
423.25 K, 25000 kPa
  mass density: 499.02 ± 1.2 kg/m3
423.25 K, 34992 kPa
  mass density: 523.34 ± 1.3 kg/m3
423.25 K, 39996 kPa
  mass density: 533.35 ± 1.4 kg/m3
428.24 K, 5018 kPa
  mass density: 303.01 ± 0.98 kg/m3
428.24 K, 24987 kPa
  mass density: 493.65 ± 1.2 kg/m3
428.24 K, 34996 kPa
  mass density: 518.85 ± 1.3 kg/m3
428.25 K, 9990 kPa
  mass density: 420.58 ± 0.93 kg/m3
428.25 K, 14983 kPa
  mass density: 454.76 ± 1 kg/m3
428.25 K, 19986 kPa
  mass density: 476.9 ± 1.1 kg/m3
428.25 K, 30000 kPa
  mass density: 507.31 ± 1.2 kg/m3
433.24 K, 5019 kPa
  mass density: 233.56 ± 0.96 kg/m3
433.25 K, 9991 kPa
  mass density: 410.25 ± 0.93 kg/m3
433.25 K, 14996 kPa
  mass density: 447.46 ± 1 kg/m3
433.25 K, 19984 kPa
  mass density: 470.79 ± 1.1 kg/m3
433.25 K, 24991 kPa
  mass density: 488.3 ± 1.2 kg/m3
433.25 K, 30001 kPa
  mass density: 502.44 ± 1.2 kg/m3
433.25 K, 34994 kPa
  mass density: 514.34 ± 1.3 kg/m3
438.25 K, 5019 kPa
  mass density: 183.56 ± 0.78 kg/m3
438.25 K, 9997 kPa
  mass density: 399.54 ± 0.92 kg/m3
438.25 K, 14998 kPa
  mass density: 440.02 ± 0.98 kg/m3
438.25 K, 19984 kPa
  mass density: 464.66 ± 1.1 kg/m3
438.25 K, 24988 kPa
  mass density: 482.93 ± 1.2 kg/m3
438.25 K, 30000 kPa
  mass density: 497.59 ± 1.2 kg/m3
438.25 K, 34992 kPa
  mass density: 509.86 ± 1.3 kg/m3
443.25 K, 5019 kPa
  mass density: 159.03 ± 0.68 kg/m3
443.25 K, 9994 kPa
  mass density: 388.26 ± 0.91 kg/m3
443.25 K, 14989 kPa
  mass density: 432.39 ± 0.97 kg/m3
443.25 K, 20002 kPa
  mass density: 458.54 ± 1.1 kg/m3
443.25 K, 24984 kPa
  mass density: 477.51 ± 1.1 kg/m3
443.25 K, 29996 kPa
  mass density: 492.7 ± 1.2 kg/m3
443.25 K, 34994 kPa
  mass density: 505.36 ± 1.3 kg/m3
448.25 K, 5018 kPa
  mass density: 144.08 ± 0.66 kg/m3
448.25 K, 9996 kPa
  mass density: 376.53 ± 0.89 kg/m3
448.25 K, 14997 kPa
  mass density: 424.77 ± 0.95 kg/m3
448.25 K, 19999 kPa
  mass density: 452.29 ± 1.1 kg/m3
448.25 K, 24998 kPa
  mass density: 472.14 ± 1.1 kg/m3
448.25 K, 29994 kPa
  mass density: 487.82 ± 1.2 kg/m3
448.25 K, 35009 kPa
  mass density: 500.91 ± 1.3 kg/m3
453.25 K, 5016 kPa
  mass density: 133.47 ± 0.64 kg/m3
453.25 K, 9986 kPa
  mass density: 364.19 ± 0.87 kg/m3
453.25 K, 14989 kPa
  mass density: 416.85 ± 0.94 kg/m3
453.25 K, 19999 kPa
  mass density: 446.01 ± 1 kg/m3
453.25 K, 25000 kPa
  mass density: 466.69 ± 1.1 kg/m3
453.25 K, 29993 kPa
  mass density: 482.93 ± 1.2 kg/m3
453.25 K, 35004 kPa
  mass density: 496.39 ± 1.3 kg/m3
